Key:
F. graminearum = assay type: cell-based, Fusarium graminearum
[1] = tested on: Venturia inaequalis Strain EUB04; test: In planta test on apple plantlets against apple scab; assay type: in vivo; conditions: reference fungicide mode, D9 to D21
Protocol: The in planta tests on apple plantlets were carried out according to the following protocol:
2 modes tested: spraying of extract D at 5 g/L 2 hours before inoculation (ExtractBefore) and spraying of extract D at 5 g/L 3 hours after inoculation (ExtractAfter)
3 control modes: • 2 untreated control modes (spraying of water on the same dates as the product) (WaterBefore and WaterAfter) • 1 mode with a reference fungicide (captan)
Artificial inoculation of plants with a Venturia inaequalis strain at 100 000 spores/ml.
Scab symptoms noted at 4 dates post-inoculation (visual estimate of % scab area)
Biological material: • Plantlets derived from roughly 3-week-old apple seedlings in soil balls—from pips taken from the Gala variety (apples harvested in an orchard planted with Gala and Elstar) • Venturia inaequalis spores on cellophane—Strain EUB04
3 boxes of 12 plantlets for each mode
D+9, D+14, D+17, D+21: Notation of percentage of leaf area affected (from 0 to 100% in 10% increments)
Since the normality and homogeneity conditions of the variances of the residues were not met, a non-parametric Kruskal-Wallis test was performed. This test being significant, the medians of the different modes were compared pairwise using the Nemenyi test based on Tukey's distance. These analyses were carried out with the R software (version 3.1.2).

SMILES	antifungal activity against F. graminearum (F. graminearum)	scab development [1]
C=C/C=C/CC/C=C/C=C/C=C/CC/C=C/[C@H](O)[C@H](O)[C@@H]1O[C@@H]([C@H](O)[C@H](O)C(=C)CC[C@@H](O)[C@H]2C[C@@H](O)[C@@H](O)[C@H]([C@@H](O)[C@H](O)/C=C(\C)CCC(O)CC(O)C(O)C(C)CC(O)C(O)CC(C)CCC(O)CC(=O)CC(O)CCCC(O)CCCCC(O)CO)O2)C[C@@H](O)[C@H]1O (some centres unmarked) [amphidinol 18]	has antifungal activity against F. graminearum	–
O=C1C2CC=CCC2C(=O)N1SC(Cl)(Cl)Cl (centres unmarked) [captan]	–	no scab development was observed

Source: US20190174768A1 (priority 2016, published 2019)
